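Five concentrations, 48 hours, 96-well plates. TGI: total growth inhibition.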 Where a SMILES comes first, the peptide text is derived from it. [ ]: non-standard residue; d: D form. The star is where a group is joined. mTyr = N[CH](Cc1cccc(O)c1)C(=O)O; Cbz = O=C(OCc1ccccc1)*; OBn = c1ccc(CO*)cc1
Assays:
Assay in all cases: NCI-60 cell line screen, 48 h
NCI-H226 lung = system: NCI-H226 lung
OVCAR-3 ovarian = system: OVCAR-3 ovarian
UACC-257 melanoma = system: UACC-257 melanoma
T-47D breast = system: T-47D breast
HOP-62 NSCLC = system: HOP-62 NSCLC
BT-549 breast = system: BT-549 breast
MOLT-4 leukemia = system: MOLT-4 leukemia
HOP-92 NSCLC = system: HOP-92 NSCLC
RPMI-8226 leukemia = system: RPMI-8226 leukemia
SN12C renal = system: SN12C renal
K-562 leukemia = system: K-562 leukemia
EKVX NSCLC = system: EKVX NSCLC
RXF 393 renal = system: RXF 393 renal
SW-620 colon = system: SW-620 colon
PC-3 prostate = system: PC-3 prostate
UACC-62 melanoma = system: UACC-62 melanoma

| SMILES | TGI (NCI-H226 lung) | TGI (OVCAR-3 ovarian) | TGI (UACC-257 melanoma) | TGI (T-47D breast) | TGI (HOP-62 NSCLC) | TGI (BT-549 breast) | TGI (MOLT-4 leukemia) | TGI (HOP-92 NSCLC) | TGI (RPMI-8226 leukemia) | TGI (SN12C renal) | TGI (K-562 leukemia) | TGI (EKVX NSCLC) | TGI (RXF 393 renal) | TGI (SW-620 colon) | TGI (PC-3 prostate) | TGI (UACC-62 melanoma) |
| --- | --- | --- | --- | --- | --- | --- | --- | --- | --- | --- | --- | --- | --- | --- | --- | --- |
| O=c1onc2c3ccccc3ncn12 | > 100 µM | > 100 µM | > 100 µM | > 100 µM | > 100 µM | > 100 µM | > 100 µM | > 100 µM | > 100 µM | > 100 µM | > 100 µM | > 100 µM | > 100 µM | > 100 µM | > 100 µM | > 100 µM |
| CC(C)(C)c1cc(C2COC(c3cc(C(C)(C)C)c(O)c(C(C)(C)C)c3)CO2)cc(C(C)(C)C)c1O (centres undefined) | > 100 µM | > 100 µM | > 100 µM | > 100 µM | > 100 µM | > 100 µM | – | > 100 µM | > 100 µM | > 100 µM | > 100 µM | > 100 µM | > 100 µM | > 100 µM | > 100 µM | > 100 µM |
| CCOc1cc(NC(C)=O)ccc1C(=O)NN1C(=O)C(Cl)C1c1ccco1 (centres undefined) | > 100 µM | 32 µM | 34.2 µM | 40.3 µM | 35.7 µM | 30.4 µM | 29.8 µM | 35.3 µM | 45.5 µM | 32.8 µM | 51.3 µM | 36.2 µM | 29 µM | > 100 µM | 32.3 µM | 25.6 µM |
| CC[C@@H](/C=C\CCC(=O)C[C@H](O)CCC=C(C)C)O[Si](C(C)C)(C(C)C)C(C)C | > 100 µM | > 100 µM | > 100 µM | > 100 µM | > 100 µM | > 100 µM | > 100 µM | > 100 µM | > 100 µM | > 100 µM | > 100 µM | > 100 µM | > 100 µM | > 100 µM | > 100 µM | > 100 µM |
| CC(C)[C@@H]1ON1C(C)c1ccccc1 (some centres undefined) | > 100 µM | > 100 µM | > 100 µM | > 100 µM | > 100 µM | > 100 µM | > 100 µM | > 100 µM | > 100 µM | > 100 µM | > 100 µM | > 100 µM | > 100 µM | > 100 µM | > 100 µM | > 100 µM |
| CC(C)C1=CC23CCC4C(C)(C(=O)O)CCCC4(C)C2CC1C1C(=O)N(c2ccc(C(=O)O)cc2)C(=O)C13 (centres undefined) | > 100 µM | > 100 µM | > 100 µM | > 100 µM | > 100 µM | > 100 µM | > 100 µM | > 100 µM | > 100 µM | > 100 µM | > 100 µM | > 100 µM | > 100 µM | > 100 µM | > 100 µM | > 100 µM |
| CCN(c1cccc(NC(=S)Nc2ccccc2N(CC)c2cc(-c3ccccc3)no2)c1)c1cc(-c2ccccc2)no1 | > 100 µM | > 100 µM | > 100 µM | > 100 µM | > 100 µM | > 100 µM | > 100 µM | > 100 µM | > 100 µM | > 100 µM | > 100 µM | > 100 µM | > 100 µM | > 100 µM | > 100 µM | > 100 µM |
| Cc1ccc(/C(O)=C/C(=O)C(=O)NN=C(c2ccccc2)c2ccccc2)cc1 | > 100 µM | > 100 µM | > 100 µM | > 100 µM | – | > 100 µM | > 100 µM | > 100 µM | > 100 µM | – | > 100 µM | > 100 µM | > 100 µM | > 100 µM | > 100 µM | > 100 µM |
| Brc1ccc(-c2cn3ccncc3n2)cc1 | > 100 µM | > 100 µM | 85.6 µM | > 100 µM | > 100 µM | > 100 µM | > 100 µM | > 100 µM | > 100 µM | > 100 µM | > 100 µM | > 100 µM | > 100 µM | – | > 100 µM | > 100 µM |
| Cc1ccc2nc(NC(=O)/C(Cc3nc4ccc(Cl)cc4[nH]c3=O)=N\NC(C)(C)C)sc2c1 | 91.3 µM | > 100 µM | > 100 µM | > 100 µM | – | > 100 µM | > 100 µM | > 100 µM | > 100 µM | > 100 µM | > 100 µM | – | > 100 µM | > 100 µM | > 100 µM | > 100 µM |
| COC(=O)C(Cc1cccc(O)c1)NC(=O)C(CC(=O)OCc1ccccc1)NC(=O)OCc1ccccc1 (centres undefined) (Cbz-Asp(OBn)-[mTyr]-OMe; configuration not given here) | > 100 µM | – | > 100 µM | 59.5 µM | > 100 µM | > 100 µM | > 100 µM | > 100 µM | > 100 µM | > 100 µM | > 100 µM | > 100 µM | > 100 µM | > 100 µM | > 100 µM | > 100 µM |
| COC(=O)c1c(OC(C)=O)ccc2c1c1c(OC(C)=O)c3ccccc3c(OC(C)=O)c1n2Cc1ccccc1 | > 50 µM | 3.52 µM | > 50 µM | 10.5 µM | 25.4 µM | 28.8 µM | > 50 µM | 3.27 µM | 5.4 µM | > 50 µM | > 50 µM | 10.4 µM | > 50 µM | – | 32 µM | 20.3 µM |

— PubChem BioAssay (NCI)
